Values belong to the compound of their own block, whether it stands above or below them.
How the values were obtained:
[1] = molecular target: T1, human A1-adenosine receptor (Homo sapiens, UniProt P30542); experiment: Radioligand binding with [3H]CCPA on recombinant human A1-adenosine receptors expressed by CHO cells; settings: read-out: A1 K1, Human
T1 construct: expressed in transfected cells; host or cells: CHO cells
T1 sequence (P30542 1-326): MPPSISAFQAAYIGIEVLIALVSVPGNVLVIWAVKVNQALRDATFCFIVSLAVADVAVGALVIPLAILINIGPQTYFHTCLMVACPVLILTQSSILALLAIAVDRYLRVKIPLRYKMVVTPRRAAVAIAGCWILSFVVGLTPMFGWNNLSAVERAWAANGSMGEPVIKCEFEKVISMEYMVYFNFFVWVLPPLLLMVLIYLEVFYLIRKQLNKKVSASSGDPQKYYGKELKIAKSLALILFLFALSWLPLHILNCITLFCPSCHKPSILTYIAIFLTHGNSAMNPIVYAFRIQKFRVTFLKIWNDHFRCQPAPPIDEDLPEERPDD
From the text: The following selective radioligands are used in the biological tests: • [^3H]CCPA (for A1 ARs) [Klotz et al., Naunyn-Schmiedeberg's Arch. Pharmacol., 340, 679 (1989)] • [^3]MSX-2 (for A2A ARs) [Muiller et al., Eur. J. Pharm. Sci., 10, 259 (2000)] • [^3H]ZM241385 (for A2B ARs_[X.-D. Ji, K. A. Jacobson, Drug Des. Discov., 16, 217 (1999)] • [^3H]PSB-11 (new antagonistic radioligand for human A3 ARs) [M. Dieckmann, M. Thorand, V. Ozola, C. E. Muiller, in Vorbereitung [Preparation] (2001)]. • [^125I]AB-MECA (for rat-A3 ARs) [Olah et al., Mol. Pharmacol., 45, 978 (1994)]. Description of the Assays That are Used for Testing Substances Production of Tissue Preparations Made from Rat Brains
As cell cultures, for example, CHO cells, which express the human A1-adenosine receptor, are used.
The nutrient medium, trypsine and PBS (phosphate-buffered common salt solution) are heated in a water bath to 37° C. The medium is suctioned off from the flask that is approximately 80% to 90% confluently covered with CHO cells. […]
The mixture is incubated for 90 minutes in an oscillating water bath at 23° C. […] The filter plates are conveyed in scintillation vials, doused with 2.5 ml of Ultima Gold Scintillation cocktail and incubated for at least 6 hours before they are measured in a scintillation counter.
The mean value is calculated from three independent experiments. […]

[2] = molecular target: T2, A1 adenosine receptor (Rattus norvegicus, UniProt P25099); settings: Table 1, literature values, cited from earlier work
T2 sequence (P25099 1-326): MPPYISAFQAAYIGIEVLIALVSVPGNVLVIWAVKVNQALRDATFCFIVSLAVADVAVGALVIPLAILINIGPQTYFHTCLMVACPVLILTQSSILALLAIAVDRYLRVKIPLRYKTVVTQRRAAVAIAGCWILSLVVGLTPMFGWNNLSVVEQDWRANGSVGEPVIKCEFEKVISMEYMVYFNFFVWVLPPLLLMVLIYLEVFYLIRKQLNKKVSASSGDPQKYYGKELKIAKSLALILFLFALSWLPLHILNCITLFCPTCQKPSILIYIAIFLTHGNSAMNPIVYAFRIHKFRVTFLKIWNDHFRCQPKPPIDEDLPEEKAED

[3] = molecular target: A2A adenosine receptor (Rattus norvegicus, UniProt P30543); settings: Table 1, literature values; cited from earlier work

Compound: 4-(chloropyrazolyl)-1-(3-phenylpropyl)-[1,2,4-]triazolo[4,3-a]quinoxaline [Y = C—CH2—CH2—CH2-Ph, R5 = H, R6 = Cl]
Ki [1]: 2 nM

melting point: 205 to 207 °C
Compound: Cn1nc(-c2nc3ccccc3n3c(Cc4cccs4)nnc23)cc1Cl [Y = C—CH2-(2-Thienyl), R5 = CH3, R6 = Cl, 4-(5-Chloro-1H-1-methyl-pyrazol-3-yl)-1-(2-thienylmethyl)-[1,2,4]triazolo[4,3-a]-quinoxaline]

Compound: Clc1cc(-c2nc3ccccc3n3cnnc23)[nH]n1 [Y = C—H, R5 = H, R6 = Cl]
A1 % Inhibition @ 10 μmol ([2]; 10 μmol): (35%) | Ki ([2]; read-out: A1 K1): > 10000 nM | A2A % Inhibition @ 25 μmol [3]: (21%)
